Laboratory results from US4613618A, “Method for treating disorders of lipid metabolism using benzene sulfonamides” (Choay S.A., priority 1981, dated 1986).
Like-named read-outs stand apart in the source and are kept apart here.

Test system: hyperlipidemia caused by the administration of TRITON
Assay: Triton test: lipid regulating activity in hyperlipidemia caused by TRITON W. R.
Assay type: in vivo, WISTAR male rats
Settings: Rattus norvegicus, po, 250 mg/kg orally, 6 hours and/or 24 hours
Experimental: In a first series of experiments, products were tested on a hyperlipidemia caused by the administration of TRITON according to the following procedure.
The tests were carried out on groups of five WISTAR male rats whose weight varied from 150 to 175 g.
The tested products were administered, orally in the form of a 3% aqueous solution of tragacanth gum in the ratio of 1 ml per 100 g of body weight, in an amount corresponding to 250 mg/kg.
To carry out these tests, a hyperlipidemia was caused in the animals, by means of the product marketed by the ROHM and HAAS Company under the name TRITON W. R.
On this hyperlipidemia the effects obtained by the administration of the active substances according to the invention, are observed.
The tests were carried out as follows:
the rats were fasted for 18 hours, then the TRITON W. R. was administered intravenously in 10% aqueous solution in the proportion of 200 mg/kg;
simultaneously 250 mg/kg of the product under test was administered orally;
6 hours and/or 24 hours later, blood assays were carried out conventionally.
to the total cholesterol, […]

[1] = read-out: Total cholesterol, % of decrease with respect to Triton control
[2] = read-out: Total lipids, % of decrease with respect to Triton control
[3] = read-out: Triglycerides, % of decrease with respect to Triton control

| Compound | change in vivo at 250 mg/kg [1] [%] | change in vivo at 250 mg/kg [2] [%] | change in vivo at 250 mg/kg [3] [%] |
| --- | --- | --- | --- |
| O=C(O)CCCCCCCCCCNS(=O)(=O)c1cccs1 [compound 823] | -41 | -25 | – |
| CCOC(=O)CCCCCCCNS(=O)(=O)c1cc(Cl)c([N+](=O)[O-])cc1OC [compound 508] | -8 | -17 | – |
| CCOC(=O)CCCNS(=O)(=O)c1ccc(N)cc1 [compound 624] | -18 | – | – |
| CCOC(=O)CCCCCNS(=O)(=O)c1cccc(N)c1 [compound 682] | – | -22 | -34 |
| Nc1cccc(S(=O)(=O)NCCCC(=O)O)c1 [compound 680] | – | -46 | -16 |
| CCOC(=O)CCCCCCCCCCNS(=O)(=O)c1ccc([N+](=O)[O-])cc1 [compound 610] | -20 | -2 | – |
| CCOC(=O)CCCCCCCCCCNS(=O)(=O)c1cccc(N)c1 [compound 683] | – | -19 | -52 |
| COc1cc([N+](=O)[O-])c(Cl)cc1S(=O)(=O)NCCCCCCCCCCC(=O)O [compound 501] | -24 | -17 | -18 |
| CCOC(=O)CCCCCNS(=O)(=O)c1ccc([N+](=O)[O-])cc1OC [compound 608] | -19 | -15 | – |
| COc1cc([N+](=O)[O-])ccc1S(=O)(=O)NCCCCCCCCCCC(=O)O [compound 661] | -37 | – | -86 |
| COc1cc([N+](=O)[O-])ccc1S(=O)(=O)NCCCCCC(=O)O [compound 696, ε(4-nitro 2-methoxybenzenesulfonamido)caproic acid] | -56 | -46 | -59 |
| CCOC(=O)CCCCCNS(=O)(=O)c1cccc([N+](=O)[O-])c1 [compound 666] | – | -20 | – |
| CCOC(=O)CCCNS(=O)(=O)c1ccc(N)cc1OC [compound 656] | -14 | -3 | -29 |
| CCOC(=O)CCCCCCCCCCNS(=O)(=O)c1ccc([N+](=O)[O-])cc1OC [compound 611] | -29 | -15 | – |
| COc1cc(N)ccc1S(=O)(=O)NCCCCCC(=O)O [compound 694, ε(4-amino 2-methoxybenzenesulfonamido)caproic acid] | -32 | -31 | -65 |
| Nc1cccc(S(=O)(=O)NCCCCCCCCCCC(=O)O)c1 [compound 695] | -24 | -20 | -27 |
| O=C(O)CCCCCNS(=O)(=O)c1cccs1 [compound 800] | -13 | -33 | -5 |
| CCOC(=O)CCCCCNS(=O)(=O)c1ccc(N)cc1 [compound 609] | -40 | – | -2 |

| Compound | change in vivo at 250 mg/kg [1] [%] | change in vivo at 250 mg/kg [2] [%] | change in vivo at 250 mg/kg [3] [%] |
| --- | --- | --- | --- |
| COc1cc(N)ccc1S(=O)(=O)NCCCCCCCCCCC(=O)O [compound 668] | -27 | -20 | -29 |
| CCOC(=O)CCCCCNS(=O)(=O)c1ccc([N+](=O)[O-])cc1 [compound 563] | -8 | -27 | – |
| COc1cc([N+](=O)[O-])ccc1S(=O)(=O)NCCCC(=O)O [compound 660] | -42 | -36 | -90 |
| CCOC(=O)CCCCCNS(=O)(=O)c1ccc(N)cc1OC [compound 612] | -1 | -48 | -13 |
| O=C(O)CCCCCCCCCCNS(=O)(=O)c1ccc([N+](=O)[O-])cc1 [compound 564] | – | -37 | -15 |
| COc1cc([N+](=O)[O-])c(Cl)cc1S(=O)(=O)NCCCCCCCC(=O)O [compound 504] | -45 | – | – |
| CCOC(=O)CCCCCCCCCCNS(=O)(=O)c1cc(Cl)c(N)cc1OC [compound 503] | – | -26 | -18 |
| O=C(O)CCCCCNS(=O)(=O)c1ccc([N+](=O)[O-])cc1 [compound 562] | – | -6 | – |
| CCOC(=O)CCCCCCCCCCNS(=O)(=O)c1ccc(Cl)cc1 [compound 728] | – | -32 | -53 |
| Nc1ccc(S(=O)(=O)NCCCCCCCCCCC(=O)O)cc1 [compound 667] | -7 | -45 | – |
| CCOC(=O)CCCNS(=O)(=O)c1cc(Cl)c(N)cc1OC [compound 484] | – | -41 | – |
| CCOC(=O)CCCCCNS(=O)(=O)c1cc(Cl)c([N+](=O)[O-])cc1OC [compound 380, ethyl ester of (5-chloro 4-nitro 2-methoxy benzenesulfonamide)caproic acid] | -19 | -31 | -86 |
| CCOC(=O)CCCCCNS(=O)(=O)c1cc(Cl)c(N)cc1OC [compound 469] | -3 | -30 | -28 |
| O=C(O)CCCCCCCCCCNS(=O)(=O)c1cccc([N+](=O)[O-])c1 [compound 697] | -46 | -35 | -50 |
| CCOC(=O)CCCNS(=O)(=O)c1cc(Cl)c([N+](=O)[O-])cc1OC [compound 486] | – | -66 | -21 |
| CCOC(=O)CCCCCCCCCCNS(=O)(=O)c1ccc(N)cc1 [compound 626] | -18 | – | – |
| CCOC(=O)CCCCCCCNS(=O)(=O)c1cc(Cl)c(N)cc1OC [compound 730] | – | – | -10 |
| CCOC(=O)CCCNS(=O)(=O)c1ccc([N+](=O)[O-])cc1OC [compound 625] | – | – | -5 |
